Drawing on ChEMBL document CHEMBL3272296, “Quinazolines and 1,4-benzodiazepines. 82.1 5-Pyrimidyl-and 5-pyrazinylbenzodiazepines” (1977), this text covers ED50 and minimal effective dose for 10 compounds.

What is called ED50 is the dose at which the effect has come halfway, by size or by number of responders.

Format in all cases: functional
For assay [1], the system named is Mus musculus. As to the kind of experiment: Anticonvulsant activity in po dosed mouse assessed as protection against maximal electroshock-induced seizures. On the technique in general: The maximal electroshock test induces tonic seizures with an electrical stimulus.
Assay [2] relates to Mus musculus. As to the kind of experiment: CNS activity in po dosed mouse assessed as reduction in muscle relaxant activity by inclined screening method.
Assay [3] deals with Mus musculus. As to the kind of experiment: Anticonvulsant activity in po dosed mouse assessed as protection against pentylenetetrazole-induced seizures.
Assay [4] concerns Mus musculus. As to the kind of experiment: CNS activity in po dosed mouse assessed as reduction in fighting behaviour.
The subject of assay [5] is Felis catus. As to the kind of experiment: CNS activity in po dosed unanesthesized cat assessed as muscle relaxant activity. As to conditions: read-out: MED.

A value given as a limit tells only on which side of the number the result lay.

In the case of `O=C1CN=C(c2ccncn2)c2cc(Cl)ccc2N1`, the ED50 is more than 800 mg/kg in assay [1], more than 400 mg/kg in assay [2], 340 mg/kg in assay [3] and more than 100 mg/kg in assay [4].

Take `O=C1CN=C(c2cnccn2)c2cc(Cl)ccc2N1`: in assay [5], the minimal effective dose worked out at 10 mg/kg. Further, the ED50 in assay [1] is more than 800 mg/kg; in assay [2], 300 mg/kg; in assay [3], 7.4 mg/kg; in assay [4] it was 50 mg/kg.

Consider `Cc1cnc(C)c(C2=NCC(=O)Nc3ccc(Br)cc32)n1`, for which, in assay [5], the minimal effective dose came to 10 mg/kg. Moreover, the ED50 is more than 800 mg/kg in assay [1], more than 400 mg/kg in assay [2], 37 mg/kg in assay [3] and 50 mg/kg in assay [4].

With `O=C1CN=C(c2ncccn2)c2cc(Cl)ccc2N1`, the minimal effective dose in assay [5] stood at 2 mg/kg. The ED50 in assay [1] was determined as 520 mg/kg; in assay [2], 500 mg/kg; in assay [3], 1.75 mg/kg; in assay [4] it was 100 mg/kg.

As for `CN1C(=O)CN=C(c2ncccn2)c2cc(Cl)ccc21`, the minimal effective dose in assay [5] was determined as 0.1 mg/kg. The results for the ED50 in assay [1], in assay [2] and in assay [3] were 315 mg/kg, more than 200 mg/kg and 0.75 mg/kg, respectively.

Take `O=[N+]([O-])c1ccc2c(c1)C(c1ncccn1)=NCCN2`: the ED50 in assay [1] is more than 800 mg/kg; in assay [2] it was more than 400 mg/kg; in assay [3], 68 mg/kg.

In the case of `CN1CCN=C(c2ncccn2)c2cc([N+](=O)[O-])ccc21`, in assay [5], the minimal effective dose stood at 20 mg/kg. The ED50 in assay [1] is more than 800 mg/kg; in assay [2], 250 mg/kg; in assay [3] it was 93 mg/kg; in assay [4], more than 100 mg/kg.

Take `CN1CCN=C(c2ncccn2)c2cc(Cl)ccc21`: the minimal effective dose in assay [5] was 10 mg/kg. For the same compound, the ED50 was 360 mg/kg in assay [1], 200 mg/kg in assay [2], more than 800 mg/kg in assay [3] and 100 mg/kg in assay [4].

Take `O=C1CN=C(c2ccccn2)c2cc(Br)ccc2N1` [BROMAZEPAM]: the minimal effective dose in assay [5] was determined as 0.2 mg/kg. Further, the ED50 in assay [1] stood at 34 mg/kg; in assay [2], 30 mg/kg; in assay [3], 0.8 mg/kg; in assay [4] it was 10 mg/kg.

As for `CN1C(=O)CN=C(c2ccccc2)c2cc(Cl)ccc21` [DIAZEPAM], the minimal effective dose in assay [5] came to 0.2 mg/kg. Also, the ED50 in assay [1] is 22 mg/kg; in assay [2], 30 mg/kg; in assay [3] it was 1.4 mg/kg; in assay [4] it was 10 mg/kg.
